# Experimental data as given in US20260294964A1, “PHARMACEUTICALS CONTAINING CHELATORS WITH STRONG ZN IONS-HOLDING FEATURE FOR THE TREATMENT OF SYMPTOMS AND DISEASES CAUSED BY MICROORGANISMS/DISEASES CAUSED BY TOXINS OR NEUROTOXINS/CANCER/SEVERAL SYNDROMES” (priority 2023, published 2026).
# “Also recorded” adds a separate entry of the source. Like-named read-outs stand apart in the source and are kept apart here.
# Assays:
# Boraras Micros fish [1] = assay: Protection of Boraras Micros fish from CuCl2 by chelators; format: in vivo; settings: 0.4 ppm CuCl2 + a few ppm to more than 10 ppm of chelator
# [2] = test system: pathogenic microorganisms; assay: Inhibition/killing of pathogenic microorganisms in water with Boraras Micros fish infected from dead fish; format: in vivo; settings: for appearance of water after 6 days / fish outcome after 6 days: 10 ppm Ampicillin / 20 ppm Bactrim / 100 ppm triethylenetetramine diethylenetriaminepentaacetate / 300 Mg EDTA / 600 ppm Ca EDTA / combinations as in label
# [3] = Safety of Ca EDTA in adults; format: in vivo, human; settings: 20 g for each time, 4 hours apart
# [4] = test system: loss of taste in Covid 19; assay: Treatment of loss of taste in Covid 19; format: in vivo, human; settings: solution containing 2% Ca EDTA sucked for a few minutes
# Boraras Micros fish [5] = test system: Boraras Micros fish
# [6] = test system: microorganisms that decompose organic matter (bacteria/fungi); assay: Culture of microorganisms that decompose organic matter; format: cell-based; settings: media with growth promoting substances
# [7] = test system: toxins/neurotoxins; microorganisms; settings: processed foods
# Boraras Micros fish [8] = assay: Neutralization of toxins/neurotoxins in Boraras Micros fish; format: in vivo
# headache = assay: Treatment of headaches of unknown cause; format: in vivo, human; settings: 0.5 g oral, adult
# [9] = test system: dry eyes/eye pain/red eyes; assay: Treatment of dry eyes/eye pain/red eyes; format: in vivo, human; settings: 0.1% eye drops, 2 to 6 times a day
# [10] = format: physicochemical, animal/human blood
# [11] = Metallic Cu suspension test with 1% Na ascorbate (Cu ion complex formation); format: physicochemical; settings: 0.1% CuCl2, alone or with several percent of chelator; excess 1% Na ascorbate
# mice = format: in vivo, mouse; settings: 0.3% in drinking water from 12 hours after flocoumafen
compound,measurement,setting,value
"O=C(O)CN(CCN(CC(=O)O)CC(=O)O)CC(=O)O.[Ca] [Ca EDTA, Ethylenediaminetetraacetic acid calcium]",survival of fish in CuCl2 with chelator,Boraras Micros fish [1],will not die after several weeks
same,appearance of water after 6 days,[2]; calcium,clear; also recorded: transparent
same,fish outcome after 6 days,[2]; calcium,lived; also recorded: did not die
same,amount used by adults in 24 hours without side effects,[3],under 120 g
same,recovery of sweet taste,[4],recover immediately afterwards
same,survival of fish,Boraras Micros fish [5]; in vivo,lived for many days
same,time after which fish did not die,Boraras Micros fish [5]; in vivo,≥ 10 days
same,toxicity / safety to host cells,Boraras Micros fish [5]; in vivo,highly safe
same,concentration at which proliferation of microorganisms is strongly inhibited,[6],700 ppm
triethylenetetramine diethylenetriaminepentaacetate,concentration that inactivates toxins/neurotoxins while preventing proliferation of microorganisms,[7],over 30 ppm
same,survival of fish in CuCl2 with chelator,Boraras Micros fish [1],will not die after several weeks
same,survival of fish with Alpha Cypermethrin,Boraras Micros fish [8]; 0.2 ppm Alpha Cypermethrin + 50-300 ppm chelator,lived for many days
same,survival of fish with Methylamine Avermectin,Boraras Micros fish [8]; 0.2 ppm Methylamine Avermectin + 50-300 ppm chelator,lived for many days
same,survival of fish with Bromadiolone,Boraras Micros fish [8]; 0.3 ppm Bromadiolone + 50-300 ppm chelator,lived for many days
same,survival of fish with phenylperazole,Boraras Micros fish [8]; 1.0 ppm phenylperazole + 50-300 ppm chelator,lived for many days
same,survival of fish with flocoumafen,Boraras Micros fish [8]; 1.25 ppm flocoumafen + 50-300 ppm chelator,lived for many days (up to weeks)
same,survival of fish with Emamectin benzoate,Boraras Micros fish [8]; 2.5 ppm Emamectin benzoate + 50-300 ppm chelator,lived for many days
same,survival of fish with Nereistoxin,Boraras Micros fish [8]; 5 ppm Nereistoxin + 50-300 ppm chelator,lived for many days (up to weeks)
same,time until headache symptoms significantly reduced,headache,about 2 hours
same,appearance of water after 6 days,[2],clear; also recorded: transparent
same,fish outcome after 6 days,[2],lived; also recorded: did not die
same,concentration in host blood/tissue fluid/alveolar fluid above which ability to inhibit/kill pathogenic bacteria far exceeds Bactrim 10 ppm/Ampicillin 20 ppm,[2]; in vivo,above 60 ppm
same,dry eyes/eye pain symptoms a few minutes after instilling,[9],no longer exist
same,red eyes symptoms,[9],decrease after a few hours
same,volume that completely dissolves Zn-blood complex suspension,"[10]; concentration of solution not given, suspension from 1.4 ml 0.1% ZnCl2 in 100 ml 0.9% NaCl with 1% blood",1.2 mL
same,"amount needed to completely dissolve Zn-blood complex suspension, compared with lysine phosphate/lysine chloride/arginine phosphate/arginine chloride",[10]; suspension with 2 ppm ZnCl2,tens to hundreds of times lower
same,appearance of metallic Cu suspension,[11],metallic Cu suspension will not appear
same,survival of fish,"Boraras Micros fish [5]; 2000 ppm triethylenetetramine diethylnenepentaacetate / 3000 ppm Mg EDTA / 2000 ppm Cu EDTA / 12000 ppm Ca EDTA, mixtures at concentrations in label",lived for many days
same,concentration at which proliferation of microorganisms is strongly inhibited,[6],100 ppm
same,survival of mice fed flocoumafen,mice,after many days the mice still lived
